Entries after “also recorded” stand apart in the source; their conditions may differ. No end group written: not given here.
Tests used:
INS-1E rat β-cells = test: MTT cell survival assay in INS-1E β-cells; assay type: cell-based; details: 0.1 nM to 100 nM
Procedure: The peptides were tested at increasing concentrations, ranging from 0.1 nM to 100 nM.
(§1) Hamster HIT-T15 insulin-secreting β-cells were obtained and cultured as described (Refs. 14, 4). INS-1E rat β-cells were kindly provided by Prof. Claes B. Wollheim (University Medical Center, Geneva, Switzerland) and cultured as described (Refs. 14, 4). Cell culture reagents were from Invitrogen (Milano, Italy). Cytokines were from Biosource (Invitrogen, Italy).
(§2) Cell survival was assessed by 3-[4,5-dimethylthiazol-2-yl]-2,5diphenyltetrazolium bromide (MTT) as described previously (Ref. 4). Cells were seeded on 96-well plates at a density of 5×10^3 cells/well. After treatments, cells were incubated with 1 mg/ml MTT for ≈1 h. The medium was aspirated, and the formazan product solubilized with 100 μl DMSO. Viability was assessed by spectrophotometry at 570 nm absorbance using a 96-well plate reader.

human pancreatic islets [1] = test: MTT cell survival assay in human pancreatic islets; assay type: cell-based; details: human islet cells, 1 nM to 100 nM
Procedure: The survival effect of UAG (1-14), UAG (1-18), UAG (1-5) and UAG (17-28), with respect to that of full length UAG (1-28), was assessed in human pancreatic islets by MTT. The peptides were tested in islet cells cultured in serum deprived medium, either alone or with IFN-γ/TNF-α/IL-1β (5 ng/ml each).
Human islets were obtained from pancreases of multiorgan donors as described (Ref. 4). Islet preparations with purity >70%, not suitable for transplantation, were provided by European Consortium for Islet Transplantation (ECIT) “Islets for Research Distribution Program,” Transplant Unit, Scientific Institute San Raffaele, Vita-Salute University, Milan. Islets (10,000) were cultured in CMRL (Invitrogen) with 10% FBS.
as §2

[2] = system: UAG receptor on HIT-T15 pancreatic β-cells; test: Competition with [125I-Tyr4]-UAG for binding sites on HIT-T15 membranes; parameters: species or system hamster
Procedure: (§3) The ability of the fragment UAG (6-13) to compete in a concentration-dependent manner with [^125I-Tyr^4]-UAG for HIT-T15 (FIG. 10A) and INS-1E (FIG. 10B) binding sites was assayed. As shown in FIGS. 10A and 10B, unlabelled UAG (1-28) and UAG (6-13) competed with a similar efficacy and in a concentration-dependent fashion with [^125I-Tyr^4]-UAG for such binding sites in both cell lines.
(§4) Membranes from hamster HIT-T15 and rat INS-1E pancreatic β-cells were prepared and assayed for the presence of [^125I-Tyr^4]-UAG binding. The ability of UAG fragments to compete with the radioligand for such binding sites has been evaluated as previously described (Ref. 4). Data are presented as mean±S.E.M. of three independent experiments.

hamster HIT-T15 β-cells = test: MTT cell survival assay in HIT-T15 β-cells; assay type: cell-based; details: for increase of cell survival: serum-free conditions
Procedure: MTT experiments were also performed in hamster HIT-T15 β-cells, to test the survival effect of UAG (1-28) or its fragments UAG (1-14), UAG (1-18), UAG (1-5) and UAG (17-28) in serum deprived medium, either alone or with IFN-γ/TNF-α/IL-1β. As for the experiments performed on INS-1E β-cells, the peptides were tested at increasing concentrations, ranging from 0.1 nM to 100 nM.
The survival effect of UAG (6-13), UAG (8-13), UAG (8-12), UAG (8-11), UAG (9-12) and UAG (9-11) was assessed in cytokine-treated HIT-T15 β-cells.
The protective effects of peptides UAG (8-13) and UAG (8-12) were found similar to those of UAG (1-14) and UAG (1-18). A peptide made of the inverse sequence of UAG (1-14) and named UAG (14-1), was used as negative control for these experiments (FIG. 5A). […] These effects were however lower than those of UAG (6-13) (FIG. 5B).
UAG fragments with alanine (Ala) substitutions at different amino acid positions (6 to 13) were tested with regards to their survival effects in HIT-T15 hamster β-cells. The cells were cultured in serum deprived medium, either alone or with IFN-γ/TNF-α/IL-1β. The peptides were tested at the concentrations of 1 nM to 100 nM. […] Under treatment with cytokines, where cell survival was reduced by ≈18% with respect to serum starved conditions, all Ala substitutions, except those at positions 10 and 11, completely reversed cell death and brought the survival rate to levels that were even higher than those under serum-free conditions, at both 1 nM and 100 nM concentrations. These effects were similar to those elicited by the original peptide UAG (6-13) (FIG. 11B).
Particularly, the best effect was exerted by Gly 6-UAG (6-13), whereas the lowest was seen using AcSer 6-UAG (6-13), AcSer 6-(D)Pro 7-UAG (6-13) (FIG. 12B).
as §1, §2

human pancreatic islets [3] = test: Insulin secretion in human pancreatic islets; assay type: cell-based; details: peptide 100 nM, glucose absent or 2 to 25 mM
Procedure: The effects of UAG (1-14) and UAG (1-18), both used at 100 nM, were investigated on insulin secretion in human islets. […] UAG (1-28) and Exendin-4 were used as positive controls (FIGS. 8C and 8D).

HIT-T15 β-cells [4] = test: Glucose-induced insulin secretion in HIT-T15 β-cells; assay type: cell-based, hamster; details: data not shown
Procedure: HIT-T15 cells were plated at density of 5×10^5 cells into 100-mm dishes and serum starved for 24 h before incubation for 1 h at 37° C. in HEPES-buffered Krebs-Ringer bicarbonate buffer (KRBH), containing 0.5% BSA with 1.25 mM glucose. The medium was changed and the cells were incubated again for 1 h in KRBH/0.5% BSA containing 1.25, 7.5 or 15 mM glucose. Following acid ethanol extraction of the hormone, secreted insulin was quantitated by a radioimmunoassay kit (Linco Research, Labodia, Yens, Switzerland) which recognizes human insulin and cross reacts with rat insulin.

[5] = system: UAG receptor on INS-1E pancreatic β-cells; test: Competition with [125I-Tyr4]-UAG for binding sites on INS-1E membranes; parameters: species or system rat
Procedure: as §3, §4

ob/ob mice = test: ob/ob mice, 4 weeks infusion by Alzet pump; assay type: in vivo, mouse
Procedure: Baseline tail vein plasma samples were collected from free-fed and 16 h fasted ob/ob mice 7 and 6 days before pump implantation into K2EDTA coated capillary tubes (Microvette CB300 K2E; Sarstedt, Germany). The animals were then separated into three groups with approximately equivalent weight ranges. Ten week old mice were anesthetized, and a filled Alzet 1004 pump was inserted, delivery portal first, into the peritoneal cavity. The musculoperitoneal and skin layers were then closed using interrupted sutures (Vicryl 5.0 FS-2 absorbable suture). Animals received pumps containing either saline, 10 mg/ml UAG, or 3.5 mg/mL UAG (6-13) (n=8 per group). Alzet 1004 pumps deliver […], and infused 30 μg of hUAG/animal/day (˜600 μg/kg/day) and 10 μg of UAG (6-13)/animal/day (˜200 μg/kg/day).
Blood samples (at 0900-1000) were obtained from fed and fasted animals at weeks 2 and 4 via the tail vein into EDTA Microvette tubes. Glucose levels in tail vein blood were measured directly using a glucometer. On the last day of treatment baseline (fasted) blood samples were taken.
For the experimental data illustrated in FIGS. 14A, 14B, 15 and 16, the animals were obtained from Charles River Laboratories (Maastricht, The Netherlands). Animals (B6.V-Lep^ob/J, Charles River Laboratories, Belgian colony) were received in our animal facilities at 8 weeks of age, and acclimatized in individual cages for 2 weeks before treatments began. They were maintained under standard 12:12 h light:dark conditions, 21° C., and were allowed free access to food and water. The animals were also handled daily to accustom them to the method used for blood collection. The peptides were dissolved in sterile, nonpyrogenic, 0.9% saline (Baxter BV, Utrecht, The Netherlands). D-glucose was obtained from Sigma-Aldrich Chemie BV (Zwijndrecht, The Netherlands), and was dissolved at 400 mg/ml in 0.9% saline. Alzet pumps (model 1004) were obtained from Charles River Laboratories (Maastricht, The Netherlands). Pumps were filled with 0.9% saline, UAG or UAG (6-13) solution under sterile conditions, and pre-incubated in 0.9% saline for at least 48 hours at 37° C. to initiate flow. Blood glucose levels were measured directly from tail vein incisions using a Freestyle mini glucometer and test strips (ART05214 Rev.A; Abbot, Amersfoort, The Netherlands). Plasma insulin levels were assayed by Ultra-sensitive mouse insulin ELISA (Cat. #10-1150-10; Mercodia, Sweden).

[6] = system: STZ-induced diabetic rats; test: Streptozotocin (STZ)-treated neonatal rats; details: for animal survival rate: day 9 after STZ
Procedure: Pregnant female Sprague-Dawley rats (n=10, day 14th-15th of pregnancy) were purchased from Harlan Srl (Italy), caged allowing free access to water and fed with a standard pellet rat diet. Natural birth occurred 6-7 days later. […] Dams were randomly assigned to the five groups and pups from the same litter were assigned to the same group. […] Pups were left with their mothers. All neonates were tested on day 2 for glycosuria using Accu-chek compact plus (Roche). Only those animals that were glycosuric at day 2 after birth were included in the STZ model group. […] Animals were killed at day 70 after birth by decapitation. Blood samples were collected after decapitation and immediately centrifuged at 20,000×g for 2 min at 4° C., and stored at −20° C. until assayed.
After excision, pancreases were removed and weighed. For insulin content determination, pancreases (35-50 mg) were homogenized and centrifuged in 5 ml acid-ethanol (0.15 mol/l HCl in 75% [vol/vol]ethanol) at 1,000 g for 20 min; the supernatants were stored at −80° C. For immunohistochemistry, additional pancreases were fixed in 4% paraformaldehyde fixative for 24 h and embedded in paraffin.
Plasma glucose levels were determined using a glucose analyzer. Insulin was measured from pancreases or from plasma by RIA as previously described (Ref. 15).

HIT-T15 β-cells [7] = test: Cytokine-induced apoptosis in HIT-T15 β-cells; assay type: cell-based, hamster
Procedure: HIT-T15 β-cells were cultured for 24 h in serum-free medium, either alone or with IFN-γ/TNF-α/IL-1β. In both cell lines, apoptosis increased under cytokine treatment, with respect to serum starvation alone. […] UAG (14-1), the inverse sequence of UAG (1-14), was used as negative control, whereas UAG (1-28), was used as positive control in each experiment.

[8] = serum deprived medium with IFN-γ/TNF-α/IL-1β

| Substance | cell survival (MTT) (INS-1E rat β-cells; serum deprived medium alone) | cell survival (MTT) (INS-1E rat β-cells; [8]) | binding to the UAG receptor [2] | cell survival (MTT) (hamster HIT-T15 β-cells; serum deprived medium alone) | cell survival (MTT) (hamster HIT-T15 β-cells; [8]) | insulin secretion (human pancreatic islets [3]) | binding to the UAG receptor [5] | other results |
| --- | --- | --- | --- | --- | --- | --- | --- | --- |
| GSSFLSPEHQRVQQ [UAG (1-14)] | potently increased cell survival | potently increased cell survival | recognized and bound | significantly increased cell viability; also recorded: potently increased cell survival | significantly increased cell viability; also recorded: potently increased cell survival | significantly increased insulin secretion both in the absence and presence of glucose | recognized and bound | cell survival (MTT) (human pancreatic islets [1]; serum deprived medium with IFN-γ/TNF-α/IL-1β (5 ng/ml each)): prevented cell death at 100 nM; glucose-induced insulin secretion (HIT-T15 β-cells [4]): significantly increased glucose-induced insulin secretion |
| GSSFLSPEHQRVQQRKES [UAG (1-18)] | potently increased cell survival | potently increased cell survival |  | significantly increased cell viability; also recorded: potently increased cell survival | significantly increased cell viability; also recorded: potently increased cell survival | significant effect with 7.5 mM glucose |  | cell survival (MTT) (human pancreatic islets [1]; serum deprived medium alone): significantly increased cell survival at 1 nM and 10 nM |
| SPEHQRVQ [UAG (6-13), Ser-Pro-Glu-His-Gln-Arg-Val-Gln] |  |  | highest binding activity |  | potently inhibited cytokine-induced cell death; also recorded: strongly effective in increasing survival |  | highest binding activity | gonadal fat weight over the period of treatment (ob/ob mice; mouse, in vivo): did not cause an increase in gonadal fat weight; decrease of gonadal fat pad weight relative to saline treated controls (ob/ob mice; period of treatment (4 weeks), trend p<0.06): approximately 7%; suppression of fasting glucose concentrations from saline treated controls (ob/ob mice; week 4): This effect remained at week 4; fed plasma glucose levels relative to saline controls (ob/ob mice; weeks 2 and 4, no statistically significant effects (RM-ANOVA)): consistent suppressive effect; animal survival rate ([6]; 30 nmol/l (STZ alone ≈52%)): ≈ 71%; animal survival rate ([6]; 100 nmol/l (STZ alone ≈52%)): 89%; reduction of plasma glucose vs. STZ group ([6]; day 70, 30 nmol/l): 31%; reduction of plasma glucose vs. STZ group ([6]; day 70, 100 nmol/l): 14%; plasma insulin levels ([6]; day 70, STZ-treated rats, UAG (6-13) at both concentrations): increasing insulin levels; antiapoptotic effect (cytokine-induced apoptosis) (HIT-T15 β-cells [7]; 24 h serum-free medium with IFN-γ/TNF-α/IL-1β, 1, 10, 100 nM): significantly reduced cytokine-induced apoptosis; also recorded: strongest antiapoptotic effect; cell number and morphology with respect to cytokine condition (HIT-T15 β-cells [7]; cytokine-treated, data not shown): increased the number of cells, induced cell enlargement and small islets formation; increase of cell survival (hamster HIT-T15 β-cells; 1 nM): ≈ 18%; increase of cell survival (hamster HIT-T15 β-cells; 100 nM): ≈ 30% |
| exendin-4 [reference compound] |  |  |  |  |  | significantly increased insulin secretion both in the absence and presence of glucose |  |  |

From patent US8318664B2, “Unacylated ghrelin fragments as therapeutic agent in the treatment of obesity” (Alize Pharma SAS, priority 2007, dated 2012)
